PubChem BioAssay AID1963972 (Molecular Pharmacology Branch, DTP, NCI, 2024)
pIC50: −log10 of the molar value. One block for each molecule: values may come before it.

Test system: 945468-187-T-J2-PDC spheroids viability
Assay: Anticancer human tumor 945468-187-T-J2-PDC patient-derived rectal carcinoma cell line growth inhibition [PI3K]
Conditions: spheroids with HUVEC and MSC; for viability, T/C: stronger effect = lower value
Summary of the method: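 Spheroid viability read-out. Co-cultures contained the tumor line plus HUVEC and human MSCs. Each agent was paired with a PI3K inhibitor (inavolisib, alpelisib, duvelisib, copanlisib) across half-log dilutions starting at clinical Cmax, or at 10 microM when Cmax was unknown.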

[1] = curve of first compound, second compound 0.0316 µM
[2] = curve of first compound, second compound 0.1 µM
[3] = curve of first compound, second compound 0.316 µM
[4] = curve of first compound, second compound 1 µM
[5] = curve of first compound, second compound 3.16 µM
[6] = curve of first compound, second compound 10 µM
[7] = second compound 0.0316 µM, first compound 0.0316 µM
[8] = second compound 0.0316 µM, first compound 0.1 µM
[9] = second compound 0.0316 µM, first compound 0.316 µM
[10] = second compound 0.0316 µM, first compound 1 µM
[11] = second compound 0.0316 µM, first compound 3.16 µM
[12] = second compound 0.0316 µM, first compound 10 µM
[13] = second compound 0.1 µM, first compound 0.0316 µM
[14] = second compound 0.1 µM, first compound 0.1 µM
[15] = second compound 0.1 µM, first compound 0.316 µM
[16] = second compound 0.1 µM, first compound 1 µM
[17] = second compound 0.1 µM, first compound 3.16 µM
[18] = second compound 0.1 µM, first compound 10 µM
[19] = second compound 0.316 µM, first compound 0.0316 µM
[20] = second compound 0.316 µM, first compound 0.1 µM
[21] = second compound 0.316 µM, first compound 0.316 µM
[22] = second compound 0.316 µM, first compound 1 µM
[23] = second compound 0.316 µM, first compound 3.16 µM
[24] = second compound 0.316 µM, first compound 10 µM
[25] = second compound 1 µM, first compound 0.0316 µM
[26] = second compound 1 µM, first compound 0.1 µM
[27] = second compound 1 µM, first compound 0.316 µM
[28] = second compound 1 µM, first compound 1 µM
[29] = second compound 1 µM, first compound 3.16 µM
[30] = second compound 1 µM, first compound 10 µM
[31] = second compound 3.16 µM, first compound 0.0316 µM
[32] = second compound 3.16 µM, first compound 0.1 µM
[33] = second compound 3.16 µM, first compound 0.316 µM
[34] = second compound 3.16 µM, first compound 1 µM
[35] = second compound 3.16 µM, first compound 3.16 µM
[36] = second compound 3.16 µM, first compound 10 µM
[37] = second compound 10 µM, first compound 0.0316 µM
[38] = second compound 10 µM, first compound 0.1 µM
[39] = second compound 10 µM, first compound 0.316 µM
[40] = second compound 10 µM, first compound 1 µM
[41] = second compound 10 µM, first compound 3.16 µM
[42] = second compound 10 µM, first compound 10 µM
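Also: spheroids exposed to compounds for seven days before reading.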

SMILES: CC(C)NCC(C(=O)N1CCN(c2ncnc3c2C(C)CC3O)CC1)c1ccc(Cl)cc1 (configuration not stated) + CC(Nc1ncnc2nc[nH]c12)c1cc2cccc(Cl)c2c(=O)n1-c1ccccc1
pIC50 [1]: < 5.00
pIC50 [2]: < 5.00
pIC50 [3]: < 5.00
pIC50 [4]: < 5.00
pIC50 [5]: < 5.00
pIC50 [6]: < 5.00
viability, T/C [7]: 88.1%
viability, T/C [8]: 82%
viability, T/C [9]: 111%
viability, T/C [10]: 74.2%
viability, T/C [11]: 116%
viability, T/C [12]: 77.2%
viability, T/C [13]: 97.1%
viability, T/C [14]: 93.1%
viability, T/C [15]: 78%
viability, T/C [16]: 84%
viability, T/C [17]: 89.7%
viability, T/C [18]: 77.7%
viability, T/C [19]: 86.4%
viability, T/C [20]: 76.6%
viability, T/C [21]: 107%
viability, T/C [22]: 97.5%
viability, T/C [23]: 100%
viability, T/C [24]: 76.9%
viability, T/C [25]: 69.1%
viability, T/C [26]: 97.6%
viability, T/C [27]: 86.4%
viability, T/C [28]: 106%
viability, T/C [29]: 92.6%
viability, T/C [30]: 67.9%
viability, T/C [31]: 80.8%
viability, T/C [32]: 75.3%
viability, T/C [33]: 77%
viability, T/C [34]: 116%
viability, T/C [35]: 84.7%
viability, T/C [36]: 76.9%
viability, T/C [37]: 93.7%
viability, T/C [38]: 96.1%
viability, T/C [39]: 86.2%
viability, T/C [40]: 103%
viability, T/C [41]: 90.4%
viability, T/C [42]: 81%

SMILES: CCN1CCN(Cc2ccc(Nc3ncc(F)c(-c4cc(F)c5nc(C)n(C(C)C)c5c4)n3)nc2)CC1 + CC(Nc1ccc2c(c1)OCCn1cc(N3C(=O)OCC3C(F)F)nc1-2)C(N)=O
pIC50 (curve of first compound, second compound 0.00316 µM): < 6.00
pIC50 (curve of first compound, second compound 0.01 µM): < 6.00
pIC50 [1]: < 6.00
pIC50 [2]: < 6.00
pIC50 [3]: 6.15
pIC50 [4]: 6.48
viability, T/C (second compound 0.00316 µM, first compound 0.00316 µM): 113%
viability, T/C (second compound 0.00316 µM, first compound 0.01 µM): 93.7%
viability, T/C (second compound 0.00316 µM, first compound 0.0316 µM): 88.2%
viability, T/C (second compound 0.00316 µM, first compound 0.1 µM): 101%
viability, T/C (second compound 0.00316 µM, first compound 0.316 µM): 82.7%
viability, T/C (second compound 0.00316 µM, first compound 1 µM): 73.2%
viability, T/C (second compound 0.01 µM, first compound 0.00316 µM): 95.2%
viability, T/C (second compound 0.01 µM, first compound 0.01 µM): 96.7%
viability, T/C (second compound 0.01 µM, first compound 0.0316 µM): 90.9%
viability, T/C (second compound 0.01 µM, first compound 0.1 µM): 102%
viability, T/C (second compound 0.01 µM, first compound 0.316 µM): 143%
viability, T/C (second compound 0.01 µM, first compound 1 µM): 71.3%
viability, T/C (second compound 0.0316 µM, first compound 0.00316 µM): 99%
viability, T/C (second compound 0.0316 µM, first compound 0.01 µM): 95.1%
viability, T/C [7]: 95.2%
viability, T/C [8]: 117%
viability, T/C [9]: 111%
viability, T/C [10]: 74.7%
viability, T/C (second compound 0.1 µM, first compound 0.00316 µM): 91.8%
viability, T/C (second compound 0.1 µM, first compound 0.01 µM): 91.3%
viability, T/C [13]: 94.3%
viability, T/C [14]: 79.3%
viability, T/C [15]: 94.1%
viability, T/C [16]: 59.1%
viability, T/C (second compound 0.316 µM, first compound 0.00316 µM): 78.2%
viability, T/C (second compound 0.316 µM, first compound 0.01 µM): 79.8%
viability, T/C [19]: 75.6%
viability, T/C [20]: 71.1%
viability, T/C [21]: 83.8%
viability, T/C [22]: 38.4%
viability, T/C (second compound 1 µM, first compound 0.00316 µM): 79.7%
viability, T/C (second compound 1 µM, first compound 0.01 µM): 67.2%
viability, T/C [25]: 83.4%
viability, T/C [26]: 82.4%
viability, T/C [27]: 51%
viability, T/C [28]: 28.2%

SMILES: CCN1CCN(Cc2ccc(Nc3ncc(F)c(-c4cc(F)c5nc(C)n(C(C)C)c5c4)n3)nc2)CC1
viability, T/C (compound 0.00316 µM): 98.9% [middle of 4 runs]
viability, T/C (compound 0.316 µM): 98.3% [middle of 4 runs]
viability, T/C (compound 1 µM): 78% [middle of 4 runs]
pIC50 (curve of compound): < 6.00

Second part, led by results:

pIC50 (curve of compound): < 5.00
SMILES: Cn1ncc(Cl)c1-c1cc(C(=O)NC(CN)Cc2cccc(F)c2)sc1Cl (configuration not stated)
viability, T/C (compound 0.1 µM): 90.9% [middle of 4 runs]
viability, T/C (compound 1 µM): 84.6% [middle of 4 runs]
viability, T/C (compound 3.16 µM): 76.5% [middle of 4 runs]

pIC50 (curve of compound): < 5.00
SMILES: CC(Cn1ccc(-c2ccc(C#N)c(Cl)c2)n1)NC(=O)c1cc(C(C)O)[nH]n1 (configuration not stated)
viability, T/C (compound 3.16 µM): 93.7% [middle of 4 runs]

pIC50 [1]: 5.36
pIC50 [2]: 5.41
pIC50 [3]: 5.25
pIC50 [4]: 5.33
pIC50 [5]: 5.37
pIC50 [6]: 5.35
SMILES: CCCS(=O)(=O)Nc1ccc(F)c(C(=O)c2c[nH]c3ncc(-c4ccc(Cl)cc4)cc23)c1F + Cc1nc(NC(=O)N2CCCC2C(N)=O)sc1-c1ccnc(C(C)(C)C(F)(F)F)c1
viability, T/C [7]: 84.6%
viability, T/C [8]: 96.3%
viability, T/C [9]: 67.6%
viability, T/C [10]: 80.9%
viability, T/C [11]: 68.5%
viability, T/C [12]: 2.55%
viability, T/C [13]: 87.3%
viability, T/C [14]: 66.7%
viability, T/C [15]: 86.7%
viability, T/C [16]: 108%
viability, T/C [17]: 59.9%
viability, T/C [18]: 4.2%
viability, T/C [19]: 98.5%
viability, T/C [20]: 84.8%
viability, T/C [21]: 74.3%
viability, T/C [22]: 84.8%
viability, T/C [23]: 81.9%
viability, T/C [24]: 17.3%
viability, T/C [25]: 78%
viability, T/C [26]: 84.7%
viability, T/C [27]: 71.3%
viability, T/C [28]: 67.5%
viability, T/C [29]: 73.7%
viability, T/C [30]: 5.17%
viability, T/C [31]: 68.8%
viability, T/C [32]: 66%
viability, T/C [33]: 78.5%
viability, T/C [34]: 72.5%
viability, T/C [35]: 63.4%
viability, T/C [36]: 8.66%
viability, T/C [37]: 60.4%
viability, T/C [38]: 61.4%
viability, T/C [39]: 80%
viability, T/C [40]: 55.6%
viability, T/C [41]: 70.2%
viability, T/C [42]: 13.4%

IC50 (curve of compound): 5.05 µM [middle of 4 runs]
SMILES: CCCS(=O)(=O)Nc1ccc(F)c(C(=O)c2c[nH]c3ncc(-c4ccc(Cl)cc4)cc23)c1F
viability, T/C (compound 0.0316 µM): 104% [middle of 4 runs]
viability, T/C (compound 0.1 µM): 88.8% [middle of 4 runs]
viability, T/C (compound 0.316 µM): 94% [middle of 4 runs]
viability, T/C (compound 1 µM): 99.4% [middle of 4 runs]
viability, T/C (compound 10 µM): 5.55% [middle of 4 runs]
